This note sets out measurements from patent publication US6518012B1, “Method for regulating the expression of MHC antigens and CD40 by inhibitors of histone deacetylation” (Health Research, Inc., priority 1999, dated 2003).

The data set deals with CIITA mRNA. Nature of the data set: CIITA mRNA by RT-PCR and real-time PCR in mouse tumor cells Colon 26 and J558. The class given is cell-based. To be noted: for CIITA fold increase / expression of CIITA: Colon 26; for CIITA fold increase: real-time PCR; for expression of CIITA: standard RT-PCR at 35 cycles; for CIITA mRNA activation: titration with different concentrations of TSA for 12 hours, RT-PCR and real-time PCR. As for the experimental part: To determine the effect of DAIs on HLA-DRα mRNA, cytoplasmic RNA was isolated from untreated and treated human trophoblast cell line JAR using standard techniques (RNeasy System from Qiagen). Standard PCR was performed using primers for DR and CIITA (Murphy et al., 1998, Reprod Dev., Chin et al., 1994, Immunity 1:687-697). Other primers used included human and mouse GAPDH (Clontech) and forward primer 5′-[…]-3′ (SEQ ID NO:25) and reverse primer 5′-[…]-3′ (SEQ ID NO:26) for mouse CIITA. PCR products were amplified with GOLD Taq for 10 min at 95° C., then 95° C. for 30 sec, 60° C. for 60 sec (25-45 cycles), then an extension at 60° C. for 10 min.
In order to obtain more quantitative information on fold changes in DR and CIITA after treatment with the deacetylase inhibitors, a real time fluorescence technique capable of quantitating low copy numbers of transcripts was carried out as follows. Oligonucleotide primers and TaqMan 5′-6-FAM and 3′-TAMRA-labeled probes were synthesized in the RPCI Biopolymer Facility. Primer and probe sequences are listed under Sequence Listing and also in FIG. 9. Sequences were designed using standard software (PrimerExpress software, PE Biosystems) except for human GAPDH.
Realtime PCR reactions contained TaqMan Universal PCR Master Mix (PE Biosystems), primers at 300 nM, and probes at optimal concentrations (150-225 nM depending on gene). Reactions were carried out on an ABI PRISM 7700 Sequence Detection System (PE Biosystems). Cycling conditions were 50° C. for 2 min, 95° C. for 10 min, then 60 cycles of 95° C. for 15 sec, 60° C. for 1 min. PCR samples were run in triplicate. The detection system and quantitative PCR was carried out as described by Williamson et al. (1995, Genet Res. 65:83-93). The threshold cycle number CT corresponded to the cycle number, at which the fluorescent emission reaches 10 standard deviations above the mean fluorescent emission, measured during the early ‘baseline’ cycles of the PCR. The CT values for triplicates were averaged and normalized to GAPDH levels. […] In such cases, in order to calculate a minimum fold change for other samples in the same group, the CT value was arbitrarily set at 40. […] Assuming reverse transcription efficiencies were approximately the same for each sample, relative amounts of mRNA using the comparative CT method. Fold changes in mRNA levels were calculated as 2^x where x=the difference between normalized CT values of the control and experimental samples.
To determine if the effect of DAIs on MHC class II was manifested in other tumors and in different species, the effect of TSA was tested on four commonly used mouse tumor models: the SaI fibrosarcoma, the Colon 26 adenocarcinoma, the J558 plasmacytoma and the P815 mastocytoma. TSA induced class II in all four mouse tumors examined, while the effects of IFNγ were variable (FIG. 4). Data presented for each cell line represents optimal incubation time and concentration of TSA and is compared with 100 U/ml of IFNγ at the same time point. Numbers over bars represents fold changes. […] Colon 26 and J558 that differed strikingly in their reactivity to IFNγ were selected for further evaluation. RT-PCR and real time PCR was used to examine induction of CIITA and IAα by TSA and IFNγ. A20, a constitutively positive B cell line was used as a positive control. The results are shown in FIGS. 5A-D. The numbers over bars represent fold changes. […] Since the classical IFNγ inducible genes IRF-1 and GBP as well as MHC class I mRNA were not induced by IFNγ in J558 (data not shown), this cell line may have a signaling defect in the IFNγ pathway. Unexpectedly however, and unlike either the MC or Colon 26 cells, TSA induced both CIITA (102-fold) and Iα (537-fold) in J558 as shown in FIGS. 5B and 5D.
In general terms: Real-time PCR tracks product formation cycle by cycle.

Regarding `CC(/C=C/C(=O)NO)=C\[C@@H](C)C(=O)c1ccc(N(C)C)cc1` [TSA, Trichostatin A], the CIITA fold increase result is reported as “absence” and the “expression of CIITA” value was “not detected”. This molecule also came in with a CIITA fold induction (J558, RT-PCR and real-time PCR (FIGS. 5B and 5D)) of 102 fold. In addition, the “CIITA mRNA activation” value (J558) is “induced”.
In the case of “IFNγ: gamma-interferon, cytokine used as comparator at 100 U/ml”, the CIITA fold increase is given as 20 fold and the “expression of CIITA” value is listed as “induced”. Moreover, the “CIITA mRNA activation” value (J558) is reported as “failed to activate”.
